According to article PMC6284057, “Combined Antibacterial Effects of Goat Cathelicidins With Different Mechanisms of Action” (Frontiers in Microbiology, 2018):
Like-named read-outs stand apart in the source and are kept apart here. No end group written: not given here.

Assays:
[1] = system: E. cloacae (XDR CI 4172); assay: microbe, parasite or virus in culture; assay type: cell-based, Enterobacter cloacae; settings: read-out: Minimum inhibitory concentration
Outline: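 Broth microdilution; final inoculum 10^6 CFU/ml of mid-log cells in 2× MH ± 1.8% NaCl; peptide diluted in 0.1% BSA; 37°C, 900 rpm, 24 h. MIC by visible turbidity; median of ≥3 independent experiments run in triplicate.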

[2] = system: E. coli (XDR CI 1057); assay: microbe, parasite or virus in culture; assay type: cell-based, Escherichia coli
Experimental: (§1) Antimicrobial assay was performed as described previously ([Panteleev et al., 2017b]). Briefly, mid-log phase bacterial test cultures were diluted with the 2× Mueller-Hinton broth (MH, Sigma) supplemented with 1.8% NaCl or without it so that to reach a final cell concentration of 10^6 CFU/ml. 50 μl aliquots of the obtained bacterial suspension were added to 50 μl of the peptide solutions serially diluted with 0.1% water solution of bovine serum albumin (BSA) in 96-well flat-bottom polystyrene microplates (Eppendorf #0030730011). After incubation at 37°C and 900 rpm for 24 h the minimum inhibitory concentrations (MIC) were determined as the lowest peptide concentrations that prevented growth of a test microorganism observed as visible turbidity. The results were expressed as the median values determined on the basis of at least three independent experiments performed in triplicate.

[3] = system: K. pneumoniae (XDR CI 1056); assay: microbe, parasite or virus in culture; assay type: cell-based, Klebsiella pneumoniae; settings: Table S2, XDR clinical isolate; NaCl content of medium not stated; read-out: Minimum inhibitory concentration
Experimental: as §1

[4] = system: P. aeruginosa (XDR CI 1049); assay: microbe, parasite or virus in culture; assay type: cell-based, Pseudomonas aeruginosa; settings: Table S2, XDR clinical isolate; NaCl content of medium not stated; read-out: Minimum inhibitory concentration
Experimental: as §1

[5] = system: P. mirabilis (XDR CI 3423); assay: microbe, parasite or virus in culture; assay type: cell-based, Proteus mirabilis; settings: Table S2, XDR clinical isolate; NaCl content of medium not stated; read-out: Minimum inhibitory concentration
Experimental: as §1

[6] = system: E. coli ML-35p; assay type: cell-based, Escherichia coli; settings: Mueller-Hinton broth, 10^6 CFU/ml, 0.1% BSA, 37°C, 24 h, median of at least 3 experiments
Experimental: as §1

[7] = system: E. coli (CI 214); assay type: cell-based, Escherichia coli; settings: CI 214, 24 h
Experimental: as §1
(§2) The peptides were twofold serially diluted with 0.1% BSA in 96-well microplates (Eppendorf #0030730011). Then, the peptide solutions were mixed in the new test plate crosswise in such a way that the resulting checkerboard contained each combination of the cathelicidins in eight doubly increasing concentrations, with wells containing the highest concentration of each peptide at opposite corners ([Berditsch et al., 2015]). Then, the antimicrobial assay was performed as described in the previous section. […] The results were expressed as the median values determined on the basis of three independent experiments performed in duplicate. Estimation of synergistic effects of different cathelicidins was performed by calculating the fractional inhibitory concentration index (FICI) according to the equation: FICI = [À]/MICÀ + [B]/MICB, where MICÀ and MICB are the MICs of the individual substances, while [A] and [B] are the MICs of A and B when used together. A synergistic effect was defined at a FICI ≤ 0.5.

[8] = system: E. coli (XDR CI 1057); assay type: cell-based, Escherichia coli; settings: for Fractional inhibitory concentration (FICA, FICB): [X]/MICX; for Fractional inhibitory concentration (FICA, FICB) / MIC of the peptide when used together ([A], [B]): 0.9% NaCl; for MIC of the peptide when used together ([A], [B]): in the mix ChMAP-28 + mini-ChBac7.5Nα, other peptide at sub-inhibitory concentration; for MIC of the individual peptide (MICA, MICB): peptide used individually, medium with physiological NaCl (0.9%), median of 3 experiments in duplicate
Experimental: as §1, §2

[9] = system: E. coli BL21 (DE3); assay type: cell-based, Escherichia coli; settings: BL21, 24 h
Experimental: as §1, §2

[10] = system: E. coli C600; assay type: cell-based, Escherichia coli
Experimental: as §1, §2

[11] = system: E. coli ML-35p; assay type: cell-based, Escherichia coli; settings: for Fractional inhibitory concentration (FICA, FICB): [X]/MICX; for Fractional inhibitory concentration (FICA, FICB) / MIC of the peptide when used together ([A], [B]): 0.9% NaCl; for MIC of the peptide when used together ([A], [B]): in the mix ChMAP-28 + mini-ChBac7.5Nα, other peptide at sub-inhibitory concentration; for MIC of the individual peptide (MICA, MICB): peptide used individually, medium with physiological NaCl (0.9%), median of 3 experiments in duplicate
Experimental: as §1, §2

[12] = system: E. cloacae (XDR CI 4172); assay type: cell-based, Enterobacter cloacae; settings: for Fractional inhibitory concentration (FICA, FICB): [X]/MICX; for Fractional inhibitory concentration (FICA, FICB) / MIC of the peptide when used together ([A], [B]): 0.9% NaCl; for MIC of the peptide when used together ([A], [B]): in the mix ChMAP-28 + mini-ChBac7.5Nα, other peptide at sub-inhibitory concentration; for MIC of the individual peptide (MICA, MICB): peptide used individually, medium with physiological NaCl (0.9%), median of 3 experiments in duplicate
Experimental: as §1, §2

[13] = system: K. pneumoniae (CI 287); assay type: cell-based, Klebsiella pneumoniae
Experimental: as §1, §2

[14] = system: P. aeruginosa PAO1; assay type: cell-based, Pseudomonas aeruginosa; settings: PAO1, 24 h
Experimental: as §1
The peptides were twofold serially diluted with 0.1% BSA in 96-well microplates (Eppendorf #0030730011). […] The results were expressed as the median values determined on the basis of three independent experiments performed in duplicate. […]

[15] = system: HEK293T cells; assay: Cytotoxicity (MTT assay); assay type: cell-based, human; settings: 24 h incubation, 3 independent experiments, read-out: IC50 against HEK293T cells
Experimental: (§3) Hemolytic activity of the peptides was tested against the fresh suspension of human red blood cells (hRBC) using the hemoglobin release assay as described previously ([Panteleev et al., 2016]). Three experiments were performed with the hRBC from blood samples obtained from independent donors. The obtained data were represented as average means with standard deviations. The cytotoxicity of the peptides against HEK293T (transformed human embryonic kidney cells) and HEF (human embryonic fibroblasts) cell lines was studied using the colorimetric 3-(4,5-dimethylthiazol-2-yl)-2,5-diphenyltetrazolium bromide (MTT) dye reduction assay according to ([Panteleev and Ovchinnikova, 2017]). Three independent experiments were performed for each peptide. Half maximal inhibitory concentration (IC50) values were estimated as described previously ([Kuzmin et al., 2018]).

[16] = system: E. faecalis ATCC 29212; assay type: cell-based, Enterococcus faecalis; settings: ATCC 29212, 24 h
Experimental: Briefly, mid-log phase bacterial test cultures were diluted with the 2× Mueller-Hinton broth (MH, Sigma) supplemented with 1.8% NaCl or without it so that to reach a final cell concentration of 10^6 CFU/ml. 50 μl aliquots of the obtained bacterial suspension were added to 50 μl of the peptide solutions serially diluted with 0.1% water solution of bovine serum albumin (BSA) in 96-well flat-bottom polystyrene microplates (Eppendorf #0030730011). […] The results were expressed as the median values determined on the basis of at least three independent experiments performed in triplicate.

[17] = system: E. coli (CI 214); assay type: cell-based, Escherichia coli; settings: CI 214, 24 h; remark: listed apart in the source
Experimental: as §1

[18] = system: mammalian cell lines (HEK293T, HEF); assay: Cytotoxicity (MTT assay); assay type: cell-based, human; settings: HEK293T and HEF, 24 h incubation
Experimental: as §3

[19] = 0.9% NaCl, Mueller-Hinton broth, 10^6 CFU/ml, 0.1% BSA, 37°C, 24 h, median of at least 3 experiments
[20] = Table S2, XDR clinical isolate, NaCl content of medium not stated
[21] = Without NaCl, Mueller-Hinton broth, 10^6 CFU/ml, 0.1% BSA, 37°C, 24 h, median of at least 3 experiments
[22] = Table 4, strain at 0 days of selection experiment (selection in MH broth with 0.9% NaCl)

Sequence | MIC [1, 19] [µM] | MIC [1, 21] [µM] | Minimum inhibitory concentration [2, 22] [µM] | Minimum inhibitory concentration ([6]; 0.9% NaCl) [µM] | Minimum inhibitory concentration ([6]; Without NaCl) [µM] | MIC of the individual peptide (MICA, MICB) [7] [µM] | Fractional inhibitory concentration (FICA, FICB) [8] | MIC of the peptide when used together ([A], [B]) [8] [µM] | MIC of the individual peptide (MICA, MICB) [8] [µM] | Fractional inhibitory concentration (FICA, FICB) [9] | MIC of the individual peptide (MICA, MICB) [9] [µM] | Fractional inhibitory concentration (FICA, FICB) [11] | MIC of the peptide when used together ([A], [B]) [11] [µM] | MIC of the individual peptide (MICA, MICB) [11] [µM] | Fractional inhibitory concentration (FICA, FICB) [12] | MIC of the peptide when used together ([A], [B]) [12] [µM] | MIC of the individual peptide (MICA, MICB) [12] [µM] | MIC of the individual peptide (MICA, MICB) ([13]; CI 287, 24 h) [µM] | also measured
GRFKRFRKKLKRLWHKVGPFVGPILHY [ChMAP-28] | 0.25 | 0.125 | 0.125 | 0.06 | 0.06 | 0.06 | 0.063 | 0.008 | 0.125 | 0.25 | 0.06 | 0.125 | 0.008 | 0.06 | 0.125 | 0.03 | 0.25 | 0.5 | MIC [1, 20]: 0.25 µM; Minimum inhibitory concentration [2, 20]: 0.125 µM; MIC [3]: 0.125 µM; MIC [4]: 0.5 µM; MIC [5]: 0.5 µM; Fractional inhibitory concentration (FICA, FICB) [7]: 0.25; Fractional inhibitory concentration (FICA, FICB) ([10]; [X]/MICX, 0.9% NaCl): 0.125-0.25; MIC of the individual peptide (MICA, MICB) ([10]; peptide used individually, medium with physiological NaCl (0.9%), median of 3 experiments in duplicate): 0.125 µM; Fractional inhibitory concentration (FICA, FICB) ([13]; [X]/MICX, 0.9% NaCl): 0.125; Fractional inhibitory concentration (FICA, FICB) [14]: 0.5; IC50 [15]: ~3.5 µM
RRLRPRRPRLPRPRPRPRPRPR [mini-ChBac7.5Nα] | 4 | 1 | 8 | 4 | 0.5 | >64 | 0.25 | 2 | 8 | 0.125 | 8 | 0.25 | 1 | 4 | 0.125 | 0.5 | 4 | 16 | Minimum inhibitory concentration [16]: >32 µM; MIC [17]: 4 µM; Fractional inhibitory concentration (FICA, FICB) ([10]; C600, 24 h): 0.25; MIC of the individual peptide (MICA, MICB) ([10]; C600, 24 h): 4 µM; Fractional inhibitory concentration (FICA, FICB) ([13]; CI 287, 24 h): 0.125; MIC of the individual peptide (MICA, MICB) [14]: >32 µM; concentrations at which cytotoxic activity was shown [18]: > 25 µM
